Structures can show the parent of a compound that is named as a salt. Where two headings read alike, the source gives them in different places.
Tests used:
Assay in all cases: AK assay 384-well format, Prestwick library screening
P. aeruginosa = assay type: cell-based, Pseudomonas aeruginosa; details: Pseudomonas aeruginosa, 3 h, 50 μM final drug concentration
K. pneumoniae = assay type: cell-based, Klebsiella pneumoniae; details: Klebsiella pneumoniae, 3 h, 50 μM final drug concentration
[1] = system: A. baumannii strain 98-37-09; assay type: cell-based, Acinetobacter baumannii; details: Acinetobacter baumannii, 983709, 3 h, 50 μM final drug concentration
[2] = system: S. aureus strain USA300-0114; assay type: cell-based, Staphylococcus aureus; details: Staphylococcus aureus, USA300, 3 h, 50 μM final drug concentration
E. faecium = assay type: cell-based, Enterococcus faecium; details: Enterococcus faecium, 3 h, 50 μM final drug concentration
E. cloacae = assay type: cell-based, Enterobacter cloacae; details: Enterobacter cloacae, 3 h, 50 μM final drug concentration
E. coli = assay type: cell-based, Escherichia coli; details: Escherichia coli, 3 h, 50 μM final drug concentration
[3] = 384-well format, cutoff for positive-scoring molecules 3-fold increase, read-out: AK-based Prestwick Library Screening Results, P. aeruginosa (increase in extracellular AK activity)
[4] = 384-well format, cutoff for positive-scoring molecules 3-fold increase, read-out: AK-based Prestwick Library Screening Results, K. pneumoniae (increase in extracellular AK activity)
[5] = 384-well format, cutoff for positive-scoring molecules 3-fold increase, read-out: AK-based Prestwick Library Screening Results, A. baumannii (increase in extracellular AK activity)
[6] = 384-well format, cutoff for positive-scoring molecules 3-fold increase, read-out: AK-based Prestwick Library Screening Results, S. aureus (increase in extracellular AK activity)
[7] = 384-well format, cutoff for positive-scoring molecules 3-fold increase, read-out: AK-based Prestwick Library Screening Results, E. faecium (increase in extracellular AK activity)
[8] = 384-well format, cutoff for positive-scoring molecules 3-fold increase, read-out: AK-based Prestwick Library Screening Results, E. cloacae (increase in extracellular AK activity)
[9] = 384-well format, cutoff for positive-scoring molecules 3-fold increase, read-out: AK-based Prestwick Library Screening Results, E. coli (increase in extracellular AK activity)
[10] = planktonic P. aeruginosa, positive cutoff 3-fold increase, read-out: AK-based Prestwick library screening result, P. aeruginosa (fold increase in extracellular AK activity)
[11] = planktonic K. pneumoniae, positive cutoff 3-fold increase, read-out: AK-based Prestwick library screening result, K. pneumoniae (fold increase in extracellular AK activity)
[12] = planktonic A. baumannii, positive cutoff 3-fold increase, read-out: AK-based Prestwick library screening result, A. baumannii (fold increase in extracellular AK activity)
[13] = planktonic S. aureus, positive cutoff 3-fold increase, read-out: AK-based Prestwick library screening result, S. aureus (fold increase in extracellular AK activity)
[14] = planktonic E. faecium, positive cutoff 3-fold increase, read-out: AK-based Prestwick library screening result, E. faecium (fold increase in extracellular AK activity)
[15] = planktonic E. cloacae, positive cutoff 3-fold increase, read-out: AK-based Prestwick library screening result, E. cloacae (fold increase in extracellular AK activity)
[16] = planktonic E. coli, positive cutoff 3-fold increase, read-out: AK-based Prestwick library screening result, E. coli (fold increase in extracellular AK activity)

**Q.** What does the source list for `CCC[C@@H]1C[C@@H](C(=O)N[C@@H]([C@H]2O[C@H](SC)[C@H](O)[C@@H](O)[C@H]2O)[C@@H](C)O)N(C)C1` [Lincomycin hydrochloride]?
**A.** fold induction at 50 µM (P. aeruginosa; planktonic P. aeruginosa, 384-well, cutoff for positive-scoring molecules 3-fold increase, read-out: AK-based Prestwick Library Screening Results: P. aeruginosa (increase in extracellular AK activity)): 1.2; fold induction at 50 µM (K. pneumoniae; planktonic K. pneumoniae, 384-well, cutoff for positive-scoring molecules 3-fold increase, read-out: AK-based Prestwick Library Screening Results: K. pneumoniae (increase in extracellular AK activity)): 0.9; fold induction at 50 µM ([1]; planktonic A. baumannii, 384-well, cutoff for positive-scoring molecules 3-fold increase, read-out: AK-based Prestwick Library Screening Results: A. baumannii (increase in extracellular AK activity)): 1.2; fold induction at 50 µM ([2]; planktonic S. aureus, 384-well, cutoff for positive-scoring molecules 3-fold increase, read-out: AK-based Prestwick Library Screening Results: S. aureus (increase in extracellular AK activity)): 7.9; fold induction at 50 µM (E. faecium; planktonic E. faecium, 384-well, cutoff for positive-scoring molecules 3-fold increase, read-out: AK-based Prestwick Library Screening Results: E. faecium (increase in extracellular AK activity)): 1.3; fold induction at 50 µM (E. cloacae; planktonic E. cloacae, 384-well, cutoff for positive-scoring molecules 3-fold increase, read-out: AK-based Prestwick Library Screening Results: E. cloacae (increase in extracellular AK activity)): 1.3; fold induction at 50 µM (E. coli; planktonic E. coli, 384-well, cutoff for positive-scoring molecules 3-fold increase, read-out: AK-based Prestwick Library Screening Results: E. coli (increase in extracellular AK activity)): 0.9

**Q.** For `Cc1ncc([N+](=O)[O-])n1CC(O)CCl` (stereo not drawn) [Ornidazole], which fold induction at 50 µM (P. aeruginosa; [3]) is on record?
**A.** The fold induction at 50 µM was 0.6.

**Q.** And the fold induction at 50 µM (K. pneumoniae; [4])?
**A.** The fold induction at 50 µM was 0.5.

**Q.** And the fold induction at 50 µM [1, 5]?
**A.** The fold induction at 50 µM was 0.6.

**Q.** And the fold induction at 50 µM [2, 6]?
**A.** Its fold induction at 50 µM is 0.5.

**Q.** What about the fold induction at 50 µM (E. faecium; [7]) of the same compound?
**A.** Its fold induction at 50 µM is 0.9.

**Q.** And the fold induction at 50 µM (E. cloacae; [8])?
**A.** The fold induction at 50 µM was 0.6.

**Q.** What about the fold induction at 50 µM (E. coli; [9]) of the same compound?
**A.** The fold induction at 50 µM was 0.6.

**Q.** Which results are given for `CCOC(=O)C1=C[C@]2(CC)CCCN3CCc4c(n1c1ccccc41)[C@@H]32` [Vinpocetine]?
**A.** fold induction at 50 µM (P. aeruginosa; [3]): 1; fold induction at 50 µM (K. pneumoniae; [4]): 0.8; fold induction at 50 µM [1, 5]: 0.9; fold induction at 50 µM [2, 6]: 0.8; fold induction at 50 µM (E. faecium; [7]): 1; fold induction at 50 µM (E. cloacae; [8]): 1; fold induction at 50 µM (E. coli; [9]): 0.9

**Q.** Which fold induction at 50 µM (P. aeruginosa; […], read-out: AK-based Prestwick Library Screening Results, P. aeruginosa (fold increase in extracellular AK activity)) does the source give for `CC(=O)N(CC(O)CN(C(C)=O)c1c(I)c(C(=O)NCC(O)CO)c(I)c(C(=O)NCC(O)CO)c1I)c1c(I)c(C(=O)NCC(O)CO)c(I)c(C(=O)NCC(O)CO)c1I` (stereo not drawn) [Iodixanol] here?
**A.** The fold induction at 50 µM was 1.2.

**Q.** What about the fold induction at 50 µM (K. pneumoniae; cutoff for positive-scoring molecules 3-fold increase, read-out: AK-based Prestwick Library Screening Results, K. pneumoniae (fold increase in extracellular AK activity)) of the same compound?
**A.** The fold induction at 50 µM was 1.

**Q.** And the fold induction at 50 µM ([1]; cutoff for positive-scoring molecules 3-fold increase, read-out: AK-based Prestwick Library Screening Results, A. baumannii (fold increase in extracellular AK activity))?
**A.** The fold induction at 50 µM was 1.

**Q.** What about the fold induction at 50 µM ([2]; […], read-out: AK-based Prestwick Library Screening Results, S. aureus (fold increase in extracellular AK activity)) of the same compound?
**A.** Its fold induction at 50 µM is 1.3.

**Q.** What about the fold induction at 50 µM (E. faecium; […], read-out: AK-based Prestwick Library Screening Results, E. faecium (fold increase in extracellular AK activity)) of the same compound?
**A.** The fold induction at 50 µM was 1.1.

**Q.** And the fold induction at 50 µM (E. cloacae; […], read-out: AK-based Prestwick Library Screening Results, E. cloacae (fold increase in extracellular AK activity))?
**A.** The fold induction at 50 µM was 1.5.

**Q.** And the fold induction at 50 µM (E. coli; […], read-out: AK-based Prestwick Library Screening Results, E. coli (fold increase in extracellular AK activity))?
**A.** Its fold induction at 50 µM is 1.3.

**Q.** With `COc1cc([C@@H]2c3cc4c(cc3[C@@H](O[C@@H]3O[C@@H]5CO[C@@H](C)O[C@H]5[C@H](O)[C@H]3O)[C@H]3COC(=O)[C@H]23)OCO4)cc(OC)c1O` [Etoposide] as the compound, how does the fold induction at 50 µM (P. aeruginosa; planktonic, cutoff for positive 3-fold increase, read-out: AK-based Prestwick Library Screening Results, P. aeruginosa (fold increase in extracellular AK activity)) read?
**A.** Its fold induction at 50 µM is 1.

**Q.** What about the fold induction at 50 µM (K. pneumoniae; planktonic, cutoff for positive 3-fold increase, read-out: AK-based Prestwick Library Screening Results, K. pneumoniae (fold increase in extracellular AK activity)) of the same compound?
**A.** The fold induction at 50 µM was 1.

**Q.** What about the fold induction at 50 µM ([1]; planktonic, cutoff for positive 3-fold increase, read-out: AK-based Prestwick Library Screening Results, A. baumannii (fold increase in extracellular AK activity)) of the same compound?
**A.** Its fold induction at 50 µM is 1.2.

**Q.** What about the fold induction at 50 µM ([2]; planktonic, cutoff for positive 3-fold increase, read-out: AK-based Prestwick Library Screening Results, S. aureus (fold increase in extracellular AK activity)) of the same compound?
**A.** The fold induction at 50 µM was 1.4.

**Q.** What about the fold induction at 50 µM (E. faecium; planktonic, cutoff for positive 3-fold increase, read-out: AK-based Prestwick Library Screening Results, E. faecium (fold increase in extracellular AK activity)) of the same compound?
**A.** Its fold induction at 50 µM is 1.1.

**Q.** And the fold induction at 50 µM (E. cloacae; planktonic, cutoff for positive 3-fold increase, read-out: AK-based Prestwick Library Screening Results, E. cloacae (fold increase in extracellular AK activity))?
**A.** The fold induction at 50 µM was 1.4.

**Q.** And the fold induction at 50 µM (E. coli; planktonic, […], read-out: AK-based Prestwick Library Screening Results, E. coli (fold increase in extracellular AK activity))?
**A.** The fold induction at 50 µM was 1.2.

**Q.** Which fold induction at 50 µM (P. aeruginosa; [10]) does the source give for `CC12CC3CC(C)(C1)CC(N)(C3)C2` [Memantine Hydrochloride] here?
**A.** The fold induction at 50 µM was 0.6.

**Q.** And the fold induction at 50 µM (K. pneumoniae; [11])?
**A.** Its fold induction at 50 µM is 0.5.

**Q.** What about the fold induction at 50 µM [1, 12] of the same compound?
**A.** Its fold induction at 50 µM is 0.7.

**Q.** What about the fold induction at 50 µM [2, 13] of the same compound?
**A.** Its fold induction at 50 µM is 0.6.

**Q.** What about the fold induction at 50 µM (E. faecium; [14]) of the same compound?
**A.** The fold induction at 50 µM was 0.9.

**Q.** What about the fold induction at 50 µM (E. cloacae; [15]) of the same compound?
**A.** The fold induction at 50 µM was 0.7.

**Q.** And the fold induction at 50 µM (E. coli; [16])?
**A.** Its fold induction at 50 µM is 0.6.

**Q.** Which results are given for `O=C(CCCN1CCC(n2c(O)nc3ccccc32)CC1)c1ccc(F)cc1` [Benperidol]?
**A.** fold induction at 50 µM (P. aeruginosa; planktonic P. aeruginosa, cutoff for positive-scoring molecules 3-fold increase, read-out: AK-based Prestwick Library Screening Results, P. aeruginosa (increase in extracellular AK activity)): 0.6; fold induction at 50 µM (K. pneumoniae; planktonic K. pneumoniae, cutoff for positive-scoring molecules 3-fold increase, read-out: AK-based Prestwick Library Screening Results, K. pneumoniae (increase in extracellular AK activity)): 0.5; fold induction at 50 µM ([1]; planktonic A. baumannii, cutoff for positive-scoring molecules 3-fold increase, read-out: AK-based Prestwick Library Screening Results, A. baumannii (increase in extracellular AK activity)): 0.5; fold induction at 50 µM ([2]; planktonic S. aureus, cutoff for positive-scoring molecules 3-fold increase, read-out: AK-based Prestwick Library Screening Results, S. aureus (increase in extracellular AK activity)): 0.5; fold induction at 50 µM (E. faecium; planktonic E. faecium, cutoff for positive-scoring molecules 3-fold increase, read-out: AK-based Prestwick Library Screening Results, E. faecium (increase in extracellular AK activity)): 1; fold induction at 50 µM (E. cloacae; planktonic E. cloacae, cutoff for positive-scoring molecules 3-fold increase, read-out: AK-based Prestwick Library Screening Results, E. cloacae (increase in extracellular AK activity)): 0.6; fold induction at 50 µM (E. coli; planktonic E. coli, cutoff for positive-scoring molecules 3-fold increase, read-out: AK-based Prestwick Library Screening Results, E. coli (increase in extracellular AK activity)): 0.6

**Q.** For `O=c1c(O)c(-c2ccc(O)cc2)oc2cc(O)cc(O)c12` [Kaempferol], which fold induction at 50 µM (P. aeruginosa; [10]) is on record?
**A.** The fold induction at 50 µM was 0.6.

**Q.** What about the fold induction at 50 µM (K. pneumoniae; [11]) of the same compound?
**A.** Its fold induction at 50 µM is 0.6.

**Q.** What about the fold induction at 50 µM [1, 12] of the same compound?
**A.** Its fold induction at 50 µM is 0.5.

**Q.** And the fold induction at 50 µM [2, 13]?
**A.** The fold induction at 50 µM was 0.2.

**Q.** And the fold induction at 50 µM (E. faecium; [14])?
**A.** The fold induction at 50 µM was 1.

**Q.** And the fold induction at 50 µM (E. cloacae; [15])?
**A.** Its fold induction at 50 µM is 1.6.

**Q.** What about the fold induction at 50 µM (E. coli; [16]) of the same compound?
**A.** The fold induction at 50 µM was 0.5.

**Q.** What does the source list for `C[C@H]1[C@H](C)CC[C@]2(C(=O)O)CC[C@]3(C)C(=CC[C@@H]4[C@@]5(C)CC[C@H](O)C(C)(C)[C@@H]5CC[C@]43C)[C@H]12` [Ursolic acid]?
**A.** fold induction at 50 µM (P. aeruginosa; [3]): 0.4; fold induction at 50 µM (K. pneumoniae; [4]): 0.4; fold induction at 50 µM [1, 5]: 0.5; fold induction at 50 µM [2, 6]: 0.1; fold induction at 50 µM (E. faecium; [7]): 2.8; fold induction at 50 µM (E. cloacae; [8]): 0.5; fold induction at 50 µM (E. coli; [9]): 0.4

Source: US10004701B2, “Methods and compositions for treating infection” (UNIVERSITY OF ROCHESTER, priority 2012, dated 2018)
